The text below walks through data of patent EP0802730B1, “PESTICIDAL COMPOUNDS” (BTG INTERNATIONAL LIMITED, priority 1995, dated 1996).

Structures are written as SMILES. In brackets after ≈: the same amount, converted by molar mass.

One test has as its system Myzus persicae, extremely resistant strain (794Jz). In words: Aphid dip test, resistant strain. It counts as in vivo. To be noted: read-out: % mortality corrected for control data.
The term mortality denotes the percentage killed. With `CC(C)(C)C1=C(O)C(=O)c2ccccc2C1=O` [Example 3, 2-(t-butyl)-3-hydroxy-naphthalene-1,4-dione], the mortality at 40 ppm was 10%, the mortality at 100 ppm was determined as 13% and the mortality at 250 ppm was determined as 87%.

Regarding `CCC(C)(C)C1=C(OC(C)=O)C(=O)c2ccccc2C1=O` [Example 2, 2-(1,1-dimethylpropyl)-3-ethanoyloxy-naphthalene-1,4-dione], the mortality at 100 ppm was determined as 17% and the mortality at 250 ppm was 47%.

Turning to `CC1(C2=C(O)C(=O)c3ccccc3C2=O)CCCCC1` [Example 25, 2-hydroxy-3-(1'-methylcyclohexyl)-naphthalene-1,4-dione], the mortality at 40 ppm came to 10%, the mortality at 100 ppm amounted to 27% and the mortality at 250 ppm amounted to 79%.

Take `CCC(C)(C)C1=C(O)C(=O)c2ccccc2C1=O` [Example 1, 2-(1,1-dimethylpropyl)-3-hydroxynaphthalene-1,4-dione]: the mortality at 100 ppm amounted to 10% and the mortality at 250 ppm was 43%.

For the next test, the system named is resistant strain of whitefly (Ned 1/2). In words: Whitefly vial test, resistant strain Ned 1/2. To be noted: Bemisia tabaci, 48 h, read-out: BT (Ned 1/2) (LC50). It counts as in vivo. On the procedure: Acetone solutions (0.100 ml) of the test compounds were placed in 10 ml glass vials and evaporated with rotation to deposit a film of the compound. Thirty adult whiteflies were placed inside the vial, then after 60 minutes, the treated insects were transferred onto untreated cotton leaf discs which were kept moist on a bed of agar gel. The temperature was maintained at 25°C and mortality assessed after 48 hours. Three replicates were used at each of 5 to 7 dose levels per compound. LC50 values (ppm solution) were calculated by using a computer software package ("Polo-PC available from LeOra Software, Berkeley, California) (See M.R. Cahill and B. Hackett in Proceedings Brighton Crop Protection Conference, 1992). The test was carried out using a susceptible strain of whitefly (SUD-S) which was collected in Sudan in 1978 from cotton.
The whitefly activity test with (BT (SUD-S)) was repeated using a resistant strain of whitefly (Ned 1/2).
On to `CC(C)(C)C1CCC(C2=C(O)C(=O)c3ccccc3C2=O)CC1` (stereo not drawn) [Compound B, 2-hydroxy-3-(4-t-butylcyclohexyl)-naphthalene-1,4-dione, reference compound], for which the LC50 came to 100 µg/mL (≈ 320 µM).

As for `CC1(C2=C(O)C(=O)c3ccccc3C2=O)CCCCC1` [Example 25, 2-hydroxy-3-(1'-methylcyclohexyl)-naphthalene-1,4-dione], the LC50 was 0.1 µg/mL (≈ 0.37 µM).
